Results as given in patent publication US7897626B2, “2-substituted thiazole-4-carboxamide derivatives, their preparation and use as pharmaceuticals” (Bayer Schering Pharma AG, priority 2007, dated 2011).

System: TLR7
Assay: TLR-induced cytokine release (TNF-alpha) in human PBMC, TLR7 ligand stimulation
Format: cell-based
Details: human PBMC incubated 18 hours with test substance and TLR7 ligand; TNF-alpha in supernatant by ELISA; read-out: EC50 (TNF-α TLR7)
Method: TLR-Induced Cytokine Release in Human “Peripheral Blood Mononuclear Cells” (PBMC)
PBMCs isolated from human whole blood are stimulated using a TLR ligand.
The cytokine determination is carried out by means of ELISA kits; a proliferation/cell metabolism determination is carried out using Alamar Blue.
For the cell preparation, about 200 ml of blood are treated with an anticoagulant (e.g. citrate Monovettes). Per Leucosep tube, 15 ml of Histopaque (room temperature, RT) are poured in and forced downwards through the inserted frit by brief initial centrifugation (one minute at 1000×g, RT). 20 ml of blood are added to the tubes prepared in this way and centrifuged at 800×g for 15 minutes (RT). After centrifugation, the following layered arrangement results from the top to the bottom:
plasma-PBMC-Histopaque-filter disc-Histopaque-erythrocytes and granulocytes. The supernatant plasma is aspirated. The PBMC are transferred together with the underlying Histopaque to a new 50 ml tube, the contents of two Leucosep tubes always being added to one 50 ml tube. The 50 ml tubes are then filled to 50 ml with PBS. This cell suspension is centrifuged at 300×g (RT) for 10 minutes.
The liquid supernatant is tipped off and the cell pellet is resuspended with a little PBS and subsequently filled to 50 ml with PBS. This washing step is repeated twice. The resulting pellet is taken up in a defined volume of medium (with additives). For the testing of the substances, PBMC are incubated for 18 hours with titrated concentrations of the test substances, e.g. in the presence or absence of TLR7 or TLR9 ligands. On the next day, the supernatants are investigated for the content of TNF-alpha or other cytokines or chemokines by means of specific ELISA. The metabolic activity of the treated cells is determined with the aid of Alamar Blue.

| EC50 [nM] | Structure (SMILES) |
| --- | --- |
| 50 | Cn1cc(NC(=O)c2csc(-c3cn[nH]c3)n2)c(C(N)=O)n1 [Example 1, 2-(1H-Pyrazol-4-yl)thiazole-4-(3-carbamoyl-1-methyl-1H-pyrazol-4-yl)-carboxamide] |
| 3800 | Cc1cc(-c2nc(C(=O)Nc3ccccc3C(N)=O)cs2)cs1 [Example 2, N-[2-(Aminocarbonyl)phenyl]-2-(5-methyl-3-thienyl)-4-thiazole-carboxamide] |
| 120 | Cc1ccc(C(N)=O)c(NC(=O)c2csc(-c3cn[nH]c3)n2)c1 [Example 3, N-[2-(Aminocarbonyl)-5-methylphenyl]-2-(1H-pyrazol-4-yl)thiazole-4-carboxamide] |
